Test results as given in PubChem BioAssay (NCI).
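Abbreviation: GI50, concentration required for 50% inhibition of growth. TGI: total growth inhibition.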

How the values were obtained:
Assay in all cases: NCI-60 cell line screen, 384-well format
[1] = test system: T-47D breast
[2] = test system: LOX IMVI melanoma
[3] = test system: IGROV1 ovarian
[4] = test system: A498 renal
[5] = test system: SK-MEL-28 melanoma
[6] = test system: OVCAR-8 ovarian
[7] = test system: 786-0 renal
[8] = test system: MCF7 breast
[9] = test system: UACC-62 melanoma
[10] = test system: HCT-15 colon
[11] = test system: COLO 205 colon
[12] = test system: ACHN renal
[13] = test system: SK-MEL-5 melanoma
[14] = test system: RXF 393 renal
[15] = test system: UO-31 renal
[16] = test system: HCT-116 colon
[17] = test system: NCI/ADR-RES ovarian
[18] = test system: U251 glioblastoma
[19] = test system: HCC-2998 colon
[20] = test system: DU-145 prostate
[21] = test system: SNB-75 CNS
[22] = test system: RPMI-8226 leukemia
[23] = test system: SF-268 CNS
[24] = test system: NCI-H460 NSCLC
[25] = test system: OVCAR-5 ovarian
[26] = test system: BT-549 breast
[27] = test system: SF-295 CNS
[28] = test system: SK-OV-3 ovarian
[29] = test system: MDA-MB-468 breast
[30] = test system: CAKI-1 renal
[31] = test system: OVCAR-3 ovarian
[32] = test system: PC-3 prostate
[33] = test system: KM12 colon
[34] = test system: TK-10 renal
[35] = test system: NCI-H23 lung
[36] = test system: HOP-92 NSCLC
[37] = test system: MALME-3M melanoma
[38] = test system: A549 NSCLC
[39] = test system: HS 578T breast
[40] = test system: MDA-MB-435 melanoma
[41] = test system: OVCAR-4 ovarian
[42] = test system: SN12C renal
[43] = test system: SW-620 colon
[44] = test system: EKVX NSCLC
[45] = test system: M14 melanoma
[46] = test system: NCI-H322M lung
[47] = test system: SF-539 CNS
[48] = test system: HT29 colon
[49] = test system: SNB-19 CNS
[50] = test system: SR leukemia
[51] = test system: NCI-H226 lung
[52] = test system: HOP-62 NSCLC
[53] = test system: MOLT-4 leukemia
[54] = test system: UACC-257 melanoma
[55] = test system: MDA-MB-231 breast
[56] = test system: NCI-H522 lung
[57] = test system: HL-60(TB) leukemia

Cn1cnc2c(F)c(Nc3ccc(Br)cc3Cl)c(C(=O)NOCCO)cc21
GI50 [1]: 84.8 µM | TGI [1]: > 100 µM | GI50 [2]: 0.425 µM | TGI [2]: 13.5 µM | GI50 [3]: 0.914 µM | TGI [3]: 47 µM | GI50 [4]: 3.46 µM | TGI [4]: 35.4 µM | GI50 [5]: 0.0217 µM | TGI [5]: 0.147 µM | GI50 [6]: 67.4 µM | TGI [6]: > 100 µM | GI50 [7]: 12.2 µM | TGI [7]: > 100 µM | GI50 [8]: > 100 µM | TGI [8]: > 100 µM | GI50 [9]: 0.0318 µM | TGI [9]: 0.311 µM | GI50 [10]: 21.5 µM | TGI [10]: > 100 µM | GI50 [11]: 0.02 µM | TGI [11]: 0.122 µM | GI50 [12]: 6.87 µM | TGI [12]: > 100 µM | GI50 [13]: 0.0449 µM | TGI [13]: 0.616 µM | GI50 [14]: 0.101 µM | TGI [14]: 12.3 µM | GI50 [15]: 3.21 µM | TGI [15]: 21.2 µM | GI50 [16]: 0.553 µM | TGI [16]: 12.2 µM | GI50 [17]: > 100 µM | TGI [17]: > 100 µM | GI50 [18]: 19.5 µM | TGI [18]: > 100 µM | GI50 [19]: 0.0284 µM | TGI [19]: 1.3 µM | GI50 [20]: 42.4 µM | TGI [20]: > 100 µM | GI50 [21]: 3.12 µM | TGI [21]: 85.9 µM | GI50 [22]: 21.1 µM | TGI [22]: > 100 µM | GI50 [23]: > 100 µM | TGI [23]: > 100 µM | GI50 [24]: > 100 µM | TGI [24]: > 100 µM | GI50 [25]: 0.205 µM | TGI [25]: > 100 µM | GI50 [26]: 6.05 µM | TGI [26]: 52.1 µM | GI50 [27]: > 100 µM | TGI [27]: > 100 µM | GI50 [28]: > 100 µM | TGI [28]: > 100 µM | GI50 [29]: 55.3 µM | TGI [29]: > 100 µM | GI50 [30]: 1.73 µM | TGI [30]: > 100 µM | GI50 [31]: 44.9 µM | TGI [31]: > 100 µM | GI50 [32]: > 100 µM | TGI [32]: > 100 µM | GI50 [33]: 0.481 µM | TGI [33]: > 100 µM | GI50 [34]: 42.4 µM | TGI [34]: > 100 µM | GI50 [35]: 0.26 µM | TGI [35]: 9.91 µM | GI50 [36]: 2.08 µM | TGI [36]: 14.5 µM | GI50 [37]: 0.0114 µM | TGI [37]: 0.0363 µM | GI50 [38]: 0.58 µM | TGI [38]: > 100 µM | GI50 [39]: 17.5 µM | TGI [39]: > 100 µM | GI50 [40]: 0.266 µM | TGI [40]: > 100 µM | GI50 [41]: 14.4 µM | TGI [41]: > 100 µM | GI50 [42]: 7.8 µM | TGI [42]: > 100 µM | GI50 [43]: 0.039 µM | TGI [43]: > 100 µM | GI50 [44]: 18.6 µM | TGI [44]: > 100 µM | GI50 [45]: 0.0211 µM | TGI [45]: 0.144 µM | GI50 [46]: 0.363 µM | TGI [46]: > 100 µM | GI50 [47]: 12.2 µM | TGI [47]: 56.5 µM | GI50 [48]: 0.0948 µM | TGI [48]: > 100 µM | GI50 [49]: 51.5 µM | TGI [49]: > 100 µM | GI50 [50]: 47 µM | TGI [50]: > 100 µM | GI50 [51]: 0.267 µM | TGI [51]: 38.7 µM | GI50 [52]: 1.22 µM | TGI [52]: > 100 µM | GI50 [53]: 49 µM | TGI [53]: > 100 µM | GI50 [54]: 0.0456 µM | TGI [54]: 0.278 µM | GI50 [55]: 1.06 µM | TGI [55]: 17.3 µM | GI50 [56]: 42.8 µM | TGI [56]: > 100 µM

CC(C)(C)Cn1c(N)nc2ccc(-c3[nH]c(C(C)(C)C)nc3-c3ccc(F)cc3)nc21
GI50 [1]: 9.88 µM | TGI [1]: 21.6 µM | GI50 [2]: 13.5 µM | TGI [2]: 26.3 µM | GI50 [3]: 2.57 µM | TGI [3]: 12.4 µM | GI50 [4]: 4.54 µM | TGI [4]: 18.6 µM | GI50 [5]: 12.6 µM | TGI [5]: 25.3 µM | GI50 [6]: 9.78 µM | TGI [6]: 21.8 µM | GI50 [8]: 6.64 µM | TGI [8]: 19.3 µM | GI50 [9]: 10.7 µM | TGI [9]: 22.7 µM | GI50 [10]: 2.16 µM | TGI [10]: 4.75 µM | GI50 [11]: 16 µM | TGI [11]: 29.5 µM | GI50 [12]: 1.9 µM | TGI [12]: 12.3 µM | GI50 [13]: 3.7 µM | TGI [13]: 15.7 µM | GI50 [14]: 12.9 µM | TGI [14]: 25.6 µM | GI50 [16]: 6.38 µM | TGI [16]: 18.9 µM | GI50 [17]: 3.76 µM | TGI [17]: 17.4 µM | GI50 [18]: 6.13 µM | TGI [18]: 18.6 µM | GI50 [19]: 3.6 µM | TGI [19]: 14.4 µM | GI50 [20]: 9.61 µM | TGI [20]: 21.6 µM | GI50 [21]: 13.5 µM | TGI [21]: 26.5 µM | GI50 [22]: 2 µM | TGI [22]: 5.4 µM | GI50 [23]: 11.8 µM | TGI [23]: 24.3 µM | GI50 [24]: 4.3 µM | TGI [24]: 16.2 µM | GI50 [25]: 3.37 µM | TGI [25]: 13 µM | GI50 [26]: 12 µM | TGI [26]: 24.5 µM | GI50 [27]: 10.6 µM | TGI [27]: 22.6 µM | GI50 [57]: 3.78 µM | TGI [57]: 10.4 µM | GI50 [28]: 8.25 µM | TGI [28]: 21 µM | GI50 [29]: 2.93 µM | TGI [29]: 15.5 µM | GI50 [30]: 6.13 µM | TGI [30]: 19.9 µM | GI50 [31]: 9.69 µM | TGI [31]: 21.5 µM | GI50 [32]: 10.2 µM | TGI [32]: 22.1 µM | GI50 [33]: 5.24 µM | TGI [33]: 17.4 µM | GI50 [34]: 3.02 µM | TGI [34]: 14.6 µM | GI50 [35]: 11.5 µM | TGI [35]: 23.9 µM | GI50 [36]: 10.2 µM | TGI [36]: 22 µM | GI50 [37]: 4.26 µM | TGI [37]: 16.7 µM | GI50 [38]: 9.53 µM | TGI [38]: 21.7 µM | GI50 [39]: 11.4 µM | TGI [39]: 23.6 µM | GI50 [40]: 13.4 µM | TGI [40]: 26.3 µM | GI50 [41]: 7.46 µM | TGI [41]: 20.3 µM | GI50 [42]: 1.8 µM | TGI [42]: 14.7 µM | GI50 [44]: 2.74 µM | TGI [44]: 15.4 µM | GI50 [45]: 12.9 µM | TGI [45]: 25.6 µM | GI50 [46]: 4.97 µM | TGI [46]: 17.7 µM | GI50 [47]: 11.9 µM | TGI [47]: 24.4 µM | GI50 [48]: 2.33 µM | TGI [48]: 6.39 µM | GI50 [49]: 11.9 µM | TGI [49]: 24.3 µM | GI50 [50]: 2.63 µM | TGI [50]: 13.5 µM | GI50 [51]: 13.1 µM | TGI [51]: 25.8 µM | GI50 [52]: 11.4 µM | TGI [52]: 23.7 µM | GI50 [53]: 7.35 µM | TGI [53]: 19.5 µM | GI50 [54]: 2.92 µM | TGI [54]: 7.71 µM | GI50 [55]: 11.7 µM | TGI [55]: 24.1 µM | GI50 [56]: 5.97 µM | TGI [56]: 18.9 µM
